Laboratory results published in patent publication US12721906B2, “Kidney targeted delivery of drugs” (The Brigham and Women's Hospital, Inc., priority 2020, dated 2026).

Legend:
[1] = molecular target: T1, megalin (Homo sapiens, UniProt P98164); experiment: Uptake of LC-NPs by HK-2 cells after cilastatin or megalin siRNA; assay type: cell-based; details: in vitro
T1 construct: effective knockdown of megalin expression in HK-2 cells was performed using siRNA directed against the megalin gene; host or cells: HK-2 human kidney proximal tubular epithelial cells
Source text: FIG. 4G-FIG. 4I. […] FIG. 4H: LC-NPs underwent lower uptake by HK-2 cells treated with cilastatin than vehicle (DPBS)-treated cells. […] Values are means±SD. means±SD. **P<0.01, and ***P<0.001 and ns: not significant as calculated by two-tailed Student's t-test.

[2] = molecular target: megalin (Mus musculus, UniProt A2ARV4)
Sequence of megalin (Mus musculus, UniProt A2ARV4) (A2ARV4 26-4660): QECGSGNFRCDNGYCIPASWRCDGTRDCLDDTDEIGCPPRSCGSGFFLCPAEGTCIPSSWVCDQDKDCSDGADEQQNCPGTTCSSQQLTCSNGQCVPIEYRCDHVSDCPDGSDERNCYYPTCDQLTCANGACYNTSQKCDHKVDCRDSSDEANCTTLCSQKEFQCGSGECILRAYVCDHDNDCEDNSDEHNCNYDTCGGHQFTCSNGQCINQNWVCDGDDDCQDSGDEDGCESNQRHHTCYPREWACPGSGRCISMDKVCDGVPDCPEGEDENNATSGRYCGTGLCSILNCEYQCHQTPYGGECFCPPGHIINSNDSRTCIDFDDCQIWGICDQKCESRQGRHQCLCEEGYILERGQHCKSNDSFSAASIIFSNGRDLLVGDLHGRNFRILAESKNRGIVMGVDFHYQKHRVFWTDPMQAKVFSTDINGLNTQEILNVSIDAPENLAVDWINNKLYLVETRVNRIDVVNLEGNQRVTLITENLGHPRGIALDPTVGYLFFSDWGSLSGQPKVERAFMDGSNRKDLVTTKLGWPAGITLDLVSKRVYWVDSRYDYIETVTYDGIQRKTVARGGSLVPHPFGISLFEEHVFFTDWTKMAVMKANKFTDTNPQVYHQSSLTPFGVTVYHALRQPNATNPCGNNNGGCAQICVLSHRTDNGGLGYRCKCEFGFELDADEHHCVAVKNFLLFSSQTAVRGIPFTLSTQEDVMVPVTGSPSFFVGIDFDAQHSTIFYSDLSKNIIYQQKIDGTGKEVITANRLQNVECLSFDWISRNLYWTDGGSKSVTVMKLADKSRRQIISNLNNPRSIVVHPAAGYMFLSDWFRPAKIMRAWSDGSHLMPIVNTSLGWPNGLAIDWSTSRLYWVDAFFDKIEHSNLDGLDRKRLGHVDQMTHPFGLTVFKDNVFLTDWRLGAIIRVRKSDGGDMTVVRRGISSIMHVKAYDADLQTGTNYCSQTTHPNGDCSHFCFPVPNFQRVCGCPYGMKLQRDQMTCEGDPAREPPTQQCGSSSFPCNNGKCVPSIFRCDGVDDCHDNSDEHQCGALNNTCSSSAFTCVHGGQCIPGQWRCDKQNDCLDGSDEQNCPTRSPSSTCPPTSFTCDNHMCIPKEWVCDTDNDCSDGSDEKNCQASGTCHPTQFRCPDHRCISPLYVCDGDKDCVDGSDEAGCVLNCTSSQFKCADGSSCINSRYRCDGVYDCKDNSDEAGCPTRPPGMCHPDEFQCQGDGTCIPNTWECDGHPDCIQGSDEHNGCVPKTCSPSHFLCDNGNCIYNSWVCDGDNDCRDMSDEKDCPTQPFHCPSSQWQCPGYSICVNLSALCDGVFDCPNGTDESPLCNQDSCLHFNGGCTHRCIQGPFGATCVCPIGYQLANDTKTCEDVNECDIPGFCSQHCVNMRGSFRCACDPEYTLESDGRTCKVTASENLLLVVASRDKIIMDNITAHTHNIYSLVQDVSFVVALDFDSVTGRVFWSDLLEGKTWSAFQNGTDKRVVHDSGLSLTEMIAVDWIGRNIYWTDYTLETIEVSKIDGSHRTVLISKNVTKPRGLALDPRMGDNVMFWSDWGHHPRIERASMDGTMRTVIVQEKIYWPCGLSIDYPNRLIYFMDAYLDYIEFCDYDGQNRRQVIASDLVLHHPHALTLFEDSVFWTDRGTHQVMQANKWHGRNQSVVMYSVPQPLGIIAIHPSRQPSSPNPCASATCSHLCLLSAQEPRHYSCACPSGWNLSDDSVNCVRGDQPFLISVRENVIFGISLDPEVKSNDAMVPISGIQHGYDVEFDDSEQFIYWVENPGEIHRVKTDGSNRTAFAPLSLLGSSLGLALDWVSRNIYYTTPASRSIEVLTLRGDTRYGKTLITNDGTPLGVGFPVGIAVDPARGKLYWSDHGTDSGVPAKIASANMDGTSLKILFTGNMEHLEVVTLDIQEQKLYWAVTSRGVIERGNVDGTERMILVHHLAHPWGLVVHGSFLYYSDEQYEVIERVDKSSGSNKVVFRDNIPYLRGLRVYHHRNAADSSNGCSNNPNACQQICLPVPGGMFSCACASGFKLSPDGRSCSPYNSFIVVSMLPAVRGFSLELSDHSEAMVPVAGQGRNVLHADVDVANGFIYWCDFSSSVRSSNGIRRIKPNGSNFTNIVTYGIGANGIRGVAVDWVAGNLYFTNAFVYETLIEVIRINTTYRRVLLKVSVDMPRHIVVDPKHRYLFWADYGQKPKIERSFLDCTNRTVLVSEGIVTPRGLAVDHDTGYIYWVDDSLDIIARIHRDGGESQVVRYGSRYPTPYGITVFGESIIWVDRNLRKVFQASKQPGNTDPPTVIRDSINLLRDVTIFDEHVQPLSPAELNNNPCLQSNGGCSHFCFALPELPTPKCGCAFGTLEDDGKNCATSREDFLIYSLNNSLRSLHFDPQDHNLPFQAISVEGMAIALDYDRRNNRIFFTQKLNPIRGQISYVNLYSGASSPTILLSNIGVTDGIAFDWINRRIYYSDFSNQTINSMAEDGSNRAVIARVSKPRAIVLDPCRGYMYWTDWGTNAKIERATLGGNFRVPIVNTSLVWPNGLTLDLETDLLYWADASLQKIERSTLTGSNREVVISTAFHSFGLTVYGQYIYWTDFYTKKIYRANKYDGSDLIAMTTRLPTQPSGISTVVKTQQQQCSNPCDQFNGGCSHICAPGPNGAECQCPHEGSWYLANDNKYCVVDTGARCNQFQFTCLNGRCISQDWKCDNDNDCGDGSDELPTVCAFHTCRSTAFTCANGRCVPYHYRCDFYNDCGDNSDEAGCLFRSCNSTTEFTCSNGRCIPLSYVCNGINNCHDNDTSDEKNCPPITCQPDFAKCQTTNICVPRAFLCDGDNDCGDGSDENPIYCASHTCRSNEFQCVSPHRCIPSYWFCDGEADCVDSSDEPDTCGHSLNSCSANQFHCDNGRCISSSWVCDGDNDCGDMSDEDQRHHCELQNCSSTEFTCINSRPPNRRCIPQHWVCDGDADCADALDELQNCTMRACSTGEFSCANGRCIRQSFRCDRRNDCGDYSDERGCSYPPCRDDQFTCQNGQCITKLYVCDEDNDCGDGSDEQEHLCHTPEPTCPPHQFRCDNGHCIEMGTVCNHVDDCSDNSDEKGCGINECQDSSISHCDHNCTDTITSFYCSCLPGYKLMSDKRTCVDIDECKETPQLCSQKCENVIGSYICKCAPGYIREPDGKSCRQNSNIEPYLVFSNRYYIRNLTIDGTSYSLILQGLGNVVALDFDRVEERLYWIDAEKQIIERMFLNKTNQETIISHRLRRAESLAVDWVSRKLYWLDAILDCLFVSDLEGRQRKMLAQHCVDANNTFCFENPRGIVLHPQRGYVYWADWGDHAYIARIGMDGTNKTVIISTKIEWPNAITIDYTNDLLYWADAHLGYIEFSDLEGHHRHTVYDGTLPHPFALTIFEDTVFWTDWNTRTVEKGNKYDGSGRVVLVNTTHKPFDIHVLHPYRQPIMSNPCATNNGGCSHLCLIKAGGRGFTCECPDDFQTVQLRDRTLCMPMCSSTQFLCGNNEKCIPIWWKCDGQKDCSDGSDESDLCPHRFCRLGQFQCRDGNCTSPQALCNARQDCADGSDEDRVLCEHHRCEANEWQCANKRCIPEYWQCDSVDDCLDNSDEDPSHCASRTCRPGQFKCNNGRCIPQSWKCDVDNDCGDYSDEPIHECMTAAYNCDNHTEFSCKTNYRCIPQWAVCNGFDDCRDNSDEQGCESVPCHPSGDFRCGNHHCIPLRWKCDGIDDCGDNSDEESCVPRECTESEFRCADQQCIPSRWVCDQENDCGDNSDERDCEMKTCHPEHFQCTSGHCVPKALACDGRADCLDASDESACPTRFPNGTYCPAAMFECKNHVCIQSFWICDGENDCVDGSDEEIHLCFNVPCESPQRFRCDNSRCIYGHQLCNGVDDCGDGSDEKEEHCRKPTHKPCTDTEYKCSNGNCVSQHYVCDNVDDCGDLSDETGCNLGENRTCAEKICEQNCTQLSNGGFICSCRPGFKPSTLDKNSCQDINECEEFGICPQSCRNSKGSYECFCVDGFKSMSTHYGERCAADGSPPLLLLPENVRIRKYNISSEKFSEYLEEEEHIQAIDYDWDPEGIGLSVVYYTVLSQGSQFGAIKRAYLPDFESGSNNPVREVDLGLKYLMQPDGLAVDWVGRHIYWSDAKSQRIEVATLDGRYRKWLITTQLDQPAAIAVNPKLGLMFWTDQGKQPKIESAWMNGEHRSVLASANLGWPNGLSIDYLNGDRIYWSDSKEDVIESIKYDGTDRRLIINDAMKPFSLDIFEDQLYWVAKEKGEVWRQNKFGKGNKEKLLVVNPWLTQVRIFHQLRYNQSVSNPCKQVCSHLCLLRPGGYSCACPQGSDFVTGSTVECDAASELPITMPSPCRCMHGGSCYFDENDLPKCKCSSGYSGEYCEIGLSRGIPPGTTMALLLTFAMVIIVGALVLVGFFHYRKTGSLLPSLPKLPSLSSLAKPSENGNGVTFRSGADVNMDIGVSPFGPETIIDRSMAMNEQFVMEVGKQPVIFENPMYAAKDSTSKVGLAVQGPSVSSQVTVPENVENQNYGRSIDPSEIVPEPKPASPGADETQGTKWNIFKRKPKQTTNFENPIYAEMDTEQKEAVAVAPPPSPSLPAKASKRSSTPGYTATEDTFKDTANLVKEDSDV
Procedure: Female C57BL/6 mice were divided into two groups. The first group (n=4) was treated subcutaneously with 100 mg/kg Cilastatin sodium salt (>98%, Sigma Aldrich, USA) once daily for 4 days, and the second group (n=3) was treated subcutaneously with DPBS for 4 days. On the day of the last treatment, the LC-NP was injected to the mice. 1 day post injection the mice were euthanized and perfused with DPBS, and the kidneys were harvested and imaged.
Without being bound by any particular theory, it was hypothesized that the accumulation of LC-NP in the PTECs of the kidney is dependent on its binding to megalin. To test this hypothesis, the mice were treated with cilastatin or vehicle (DPBS) for 4 days prior to injection of LC-NP. Cilastatin, an inhibitor of renal dehydropeptidase-I (DHP-I), blocks megalin-mediated uptake in the kidney through competitive inhibition^33. 24 hours post-injection of LC-NP, the mice were euthanized and the major organs were harvested for imaging. […] Next, the specific effect of cilastatin on the binding of LC-NPs to PTECs was examined by treating HK-2 human PTECs in vitro directly with LC-NPs and cilastatin.

number of LC-NPs taken up by HK-2 cells, with vs without cilastatin [1]: significantly lower
kidney MFI of LC-NP, cilastatin-treated vs vehicle-treated mice ([2]; cilastatin 4 days before LC-NP, 24 hours post-injection): significantly lower
kidney MFI of NPs, cilastatin-treated vs vehicle-treated mice ([2]; mice injected with NPs): no statistical difference
Compound: CC1(C)C[C@@H]1C(=O)N/C(=C\CCCCSC[C@H](N)C(=O)O)C(=O)O [cilastatin, Cilastatin]
